Each structure is given as a SMILES string. Structures can show the parent of a compound that is named as a salt.

The source of these data is US20230012368A1 (Hoffmann-La Roche Inc., priority 2018, published 2023).

In the first test the test system is Acinetobacter baumannii ATCC 17978. The test can be described thus: Antimicrobial susceptibility testing: 90% growth inhibitory concentration (IC90) determination. Format: cell-based. The settings on record: 90% growth inhibitory concentration; Acinetobacter baumannii ATCC17978; Iso-Sensitest broth, OD 600 nm over 16h; read-out: ATCC17978 IC90. A digest of the protocol: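 Compounds serially twofold diluted (e.g. 50 to 0.097 μM final) in Iso-Sensitest broth, inoculated at ~5×10^(5) CFU/ml, incubated at 35±2° C. OD600 read every 20 minutes over 16h. IC90 taken as concentration inhibiting 90% of growth during logarithmic phase.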
Broadly, the IC90 is the point of the concentration-response curve where the effect stands at 90%. Take `Cc1cc(Nc2nccn3c(-c4ccc(Cl)cc4)cnc23)ccc1C(=O)NCCCN` [Example 236, N-(3-aminopropyl)-4-[[3-(4-chlorophenyl)imidazo[1,2-a]pyrazin-8-yl]amino]-2-methylbenzamide; hydrochloride]: the IC90 stood at 1400 nM.

Still in this test, the particulars now being: Acinetobacter baumannii, ATCC17978, 16 h, 90% growth inhibitory concentration; Acinetobacter baumannii ATCC17978; Iso-Sensitest broth, OD 600 nm over 16h; read-out: ATCC17978 IC90.
With `COc1ccc(-c2cnc3c(Nc4ccc(C(=O)N(C)CCN5CCCCC5)c(Cl)c4)nccn23)cc1F` [Example 237, 2-chloro-4-[[3-(3-fluoro-4-methoxyphenyl)imidazo[1,2-a]pyrazin-8-yl]amino]-N-methyl-N-(2-piperidin-1-ylethyl)benzamide], the IC90 came out at 1500 nM. On the same count and under the same terms, for `C=Cc1cc(Nc2nccn3c(-c4ccc(OC(F)F)cc4)cnc23)ccc1C(=O)NCCN1CCNCC1` [Example 238, 4-[[3-[4-(difluoromethoxy)phenyl]im-idazo[1,2-a]pyrazin-8-yl]amino]-2-ethenyl-N-(2-piperazin-1-ylethyl)benzamide; hydrochlo-ride] the value was 1800 nM.

Consider `Cc1cc(Nc2nccn3c(-c4ccc(Cl)cc4)cnc23)ccc1C(=O)NCCCCN` [Example 239, N-(4-aminobutyl)-4-[[3-(4-chlorophenyl)imidazo[1,2-a]pyrazin-8-yl]amino]-2-methylbenzamide; hydrochlo-ride], for which the IC90 was found to be 540 nM. Regarding `Cc1cc(Nc2nccn3c(-c4ccc(Cl)c(F)c4F)cnc23)ccc1C(=O)NCC1CCN(C)CC1` [Example 240, 4-[[3-(4-chloro-2,3-difluorophenyl)imidazo[1,2-a]pyrazin-8-yl]amino]-2-methyl-N-[(1-methylpiperidin-4-yl)methyl]benzamide], the IC90 was found to be 1100 nM. Same read-out and setting: for `Cc1cc(Nc2nccn3c(-c4ccc(Cl)c(F)c4F)cnc23)ccc1C(=O)N(C)CCN` [Example 241, N-(2-aminoethyl)-4-[[3-(4-chloro-2,3-difluorophenyl)imidazo[1,2-a]pyrazin-8-yl]amino]-N,2-dimethylbenzamide;hydrochlo-ride] the value was 1900 nM. For the compound `Cc1cc(Nc2nccn3c(-c4ccc(OC(F)F)cc4)cnc23)ccc1C(=O)NCC1CNCCO1` (stereo not drawn) [Example 242, 4-[[3-[4-(difluoromethoxy)phenyl]im-idazo[1,2-a]pyrazin-8-yl]amino]-2-methyl-N-(morpholin-2-ylmethyl)benzamide; hydrochlo-ride], the IC90 was 2000 nM. Same read-out and setting: the value for `COc1ccc(-c2cnc3c(Nc4ccc(C(=O)NCCO)cc4)nccn23)cc1Cl` [Example 243, 4-[[3-(3-chloro-4-methoxyphenyl)imidazo[1,2-a]pyrazin-8-yl]amino]-N-(2-hydroxyethyl)benzamide] was 2100 nM; that for `Cc1cc(Nc2nccn3c(-c4ccc(Cl)c(F)c4F)cnc23)ccc1C(=O)NCCC1CCN(C)CC1` [Example 244, 4-[[3-(4-chloro-2,3-difluorophenyl)imidazo[1,2-a]pyrazin-8-yl]amino]-2-methyl-N-[2-(1-methylpiperidin-4-yl)ethyl]benzamide] was 440 nM. Regarding `COC(=O)[C@H](CCCCNC(=O)c1ccc(Nc2nccn3c(-c4ccc(OC(F)F)cc4)cnc23)cc1C)NC(=O)OC(C)(C)C` [Example 245, methyl (2S)-6-[[4-[[3-[4-(difluoromethoxy)phenyl]im-idazo[1,2-a]pyrazin-8-yl]amino]-2-methylbenzoyl]amino]-2-[(2-methylpropan-2-yl)oxycarbonylamino]hexa-noate], the concentration for an effect of 90% (IC90) stood at 2200 nM. The same measure, in the same setting: the value for `COc1ccc(-c2cnc3c(Nc4ccc(C(=O)NCC5CNCCN5)c(C)c4)nccn23)cc1F` (stereo not drawn) [Example 246, 4-[[3-(3-fluoro-4-methoxyphenyl)imidazo[1,2-a]pyrazin-8-yl]amino]-2-methyl-N-(piperazin-2-ylmethyl)benzamide;hydrochlo-ride] was 2200 nM; that for `Cc1cc(Nc2nccn3c(-c4ccc(OC(F)F)cc4)cnc23)ccc1C(=O)NCCN1CCOCC1=O` [Example 247, 4-[[3-[4-(difluoromethoxy)phenyl]im-dazo[1,2-a]pyrazin-8-yl]amino]-2-methyl-N-[2-(3-oxomorpholin-4-yl)ethyl]benzamide] was 2400 nM.
